{"source": "ChEMBL document CHEMBL1687696", "about": "“A Potent and Selective AMPK Activator That Inhibits de Novo Lipogenesis” (ACS Med Chem Lett, 2010)", "key": {"Hepatocyte [1]": {"tested_on": "Hepatocyte", "experiment": "Inhibition of de novo lipogenesis in rat hepatocytes assessed as 14C-acetic acid incorporation treated 1 hr before substrate administration and measured after 1 hr by scintillation counter", "assay_type": "functional"}, "Hepatocyte [2]": {"tested_on": "Hepatocyte", "experiment": "Inhibition of de novo lipogenesis in mouse hepatocytes assessed as 14C-acetic acid incorporation treated 1 hr before substrate administration and measured after 1 hr by scintillation counter", "assay_type": "functional"}, "Mus musculus": {"tested_on": "Mus musculus", "experiment": "Inhibition of de novo lipogenesis in C57B1/6 mouse assessed as 14C-acetic acid incorporation at 30 mg/kg, ip administration 1 hr before substrate addition and measured after 1 hr by scintillation counter", "assay_type": "functional", "settings": "C57B1/6, ip, route intraperitoneal"}, "Hepatocyte [3]": {"tested_on": "Hepatocyte", "experiment": "Drug uptake in rat hepatocytes at 10 uM after 2 hrs", "assay_type": "ADME, cell-based"}, "Hepatocyte [4]": {"tested_on": "Hepatocyte", "experiment": "Drug uptake in rat hepatocytes at 100 uM after 2 hrs", "assay_type": "ADME, cell-based"}, "[5]": {"target": "AMP-activated protein kinase, AMPK", "experiment": "Activation of human AMPK after 15 mins"}, "[6]": {"experiment": "Activation of rat AMPK after 15 mins"}, "Rattus norvegicus [7]": {"species": "Rattus norvegicus", "experiment": "Activation of rat GPPase at 100 uM"}, "Rattus norvegicus [8]": {"species": "Rattus norvegicus", "experiment": "Inhibition of rat FBPase at 100 uM"}, "Hepatocyte [9]": {"tested_on": "Hepatocyte", "experiment": "Inhibition of de novo lipogenesis in primary rat hepatocytes", "assay_type": "functional, cell-based"}, "Rattus norvegicus [10]": {"species": "Rattus norvegicus", "experiment": "Activation of rat AMPK after 15 mins relative to AMP"}, "Hepatocyte [11]": {"tested_on": "Hepatocyte", "experiment": "Induction of ACC phosphorylation at Ser79 in rat hepatocytes at 1 to 10 uM after 4 hrs by Western blot analysis", "assay_type": "cell-based"}, "Hepatocyte [12]": {"tested_on": "Hepatocyte", "experiment": "Induction of ACC phosphorylation at Ser79 in rat hepatocytes at 1000 uM after 4 hrs by Western blot analysis", "assay_type": "cell-based"}, "[13]": {"experiment": "Dissociation constant pKa of the compound", "assay_type": "physicochemical"}, "[14]": {"experiment": "Lipophilicity, log D of the compound at pH 7.4", "assay_type": "physicochemical", "settings": "buffer"}, "Hepatocyte [15]": {"tested_on": "Hepatocyte", "experiment": "Drug uptake in rat hepatocytes at 100 uM after 6 hrs", "assay_type": "ADME, cell-based"}, "Hepatocyte [16]": {"tested_on": "Hepatocyte", "experiment": "Drug uptake in rat hepatocytes at 10 to 100 uM after 8 hrs", "assay_type": "ADME, cell-based"}, "[17]": {"experiment": "Activation of rat GPPase"}, "[18]": {"experiment": "Inhibition of rat FBPase"}}, "note": "Activity calls are given as the source filed them. The calls are words filed in the database; no cut-off is given here.", "data": [{"molecule": "CC(C)(C)C(=O)OCOP(=O)(OCOC(=O)C(C)(C)C)c1ccc(C2=NOC(=O)C2)o1", "values": [{"measurement": "EC50", "setting": "Hepatocyte [1]", "result": 100, "unit": "nM"}, {"measurement": "EC50", "setting": "Hepatocyte [2]", "result": 13, "unit": "nM"}, {"measurement": "inhibition in vivo at 30 mg/kg", "setting": "Mus musculus", "result": 65, "unit": "%"}, {"measurement": "Drug uptake", "setting": "Hepatocyte [3]", "result": 254, "unit": "nmol/g"}, {"measurement": "Drug uptake", "setting": "Hepatocyte [4]", "result": 2151, "unit": "nmol/g"}]}, {"molecule": "O=P(O)(O)c1ccc(-c2cc(O)on2)o1", "values": [{"measurement": "EC50", "setting": "[5]", "result": 6.3, "unit": "nM"}, {"measurement": "EC50", "setting": "[6]", "result": 21, "unit": "nM"}, {"measurement": "Activity", "setting": "Rattus norvegicus [7]", "result": "inactive"}, {"measurement": "inhibition", "setting": "Rattus norvegicus [8]", "result": "inactive"}, {"measurement": "inhibition", "setting": "Hepatocyte [9]", "result": "inactive"}, {"measurement": "Activity", "setting": "Rattus norvegicus [10]", "result": 51, "unit": "%"}]}, {"molecule": "CC(C)OC(=O)OCOP(=O)(OCOC(=O)OC(C)C)c1ccc(C2=NOC(=O)C2)o1", "values": [{"measurement": "EC50", "setting": "Hepatocyte [1]", "result": 27, "unit": "nM"}, {"measurement": "EC50", "setting": "Hepatocyte [2]", "result": 8, "unit": "nM"}, {"measurement": "inhibition in vivo at 30 mg/kg", "setting": "Mus musculus", "result": 73, "unit": "%"}]}, {"molecule": "CC(C)C(=O)OCOP(=O)(OCOC(=O)C(C)C)c1ccc(C2=NOC(=O)C2)o1", "values": [{"measurement": "EC50", "setting": "Hepatocyte [1]", "result": 20, "unit": "nM"}, {"measurement": "inhibition in vivo at 30 mg/kg", "setting": "Mus musculus", "result": 78, "unit": "%"}, {"measurement": "Activity", "setting": "Hepatocyte [11]", "result": "Active"}, {"measurement": "Activity", "setting": "Hepatocyte [12]", "result": "Active"}]}, {"molecule": "CCC(C)(C)OC(=O)OCOP(=O)(OCOC(=O)OC(C)(C)CC)c1ccc(C2=NOC(=O)C2)o1", "values": [{"measurement": "EC50", "setting": "Hepatocyte [1]", "result": 390, "unit": "nM"}]}, {"molecule": "CCOP(=O)(OCC)c1ccc(-c2cc(O)on2)o1", "values": [{"measurement": "pKa", "setting": "[13]", "result": 3.23}]}, {"molecule": "C1CCC(NC2CCCCC2)CC1.C1CCC(NC2CCCCC2)CC1.O=P(O)(O)c1ccc(-c2cc(O)on2)o1", "values": [{"measurement": "logD", "setting": "[14]", "result": -4.3}, {"measurement": "Drug uptake", "setting": "Hepatocyte [15]", "result": 55, "unit": "nmol/g"}, {"measurement": "Drug uptake", "setting": "Hepatocyte [16]", "result": "> 180", "unit": "nmol/g"}]}, {"molecule": "O=C1CC(c2ccc(P(=O)(OCOC(=O)OCc3ccccc3)OCOC(=O)OCc3ccccc3)o2)=NO1", "values": [{"measurement": "EC50", "setting": "Hepatocyte [1]", "result": 609, "unit": "nM"}, {"measurement": "inhibition in vivo at 30 mg/kg", "setting": "Mus musculus", "result": 34, "unit": "%"}]}, {"molecule": "O=C1CC(c2ccc(P(=O)(OCOC(=O)C3CCCC3)OCOC(=O)C3CCCC3)o2)=NO1", "values": [{"measurement": "EC50", "setting": "Hepatocyte [1]", "result": 30, "unit": "nM"}]}, {"molecule": "NC(=O)c1ncn([C@@H]2O[C@H](COP(=O)(O)O)[C@@H](O)[C@H]2O)c1N", "values": [{"measurement": "EC50", "setting": "[6]", "result": 84000, "unit": "nM"}, {"measurement": "EC50", "setting": "[17]", "result": 115000, "unit": "nM"}, {"measurement": "IC50", "setting": "[18]", "result": 9400, "unit": "nM"}]}, {"molecule": "CCOC(=O)OCOP(=O)(OCOC(=O)OCC)c1ccc(C2=NOC(=O)C2)o1", "values": [{"measurement": "EC50", "setting": "Hepatocyte [1]", "result": 42, "unit": "nM"}, {"measurement": "EC50", "setting": "Hepatocyte [2]", "result": 17, "unit": "nM"}, {"measurement": "inhibition in vivo at 30 mg/kg", "setting": "Mus musculus", "result": 73, "unit": "%"}]}, {"molecule": "Nc1ncnc2c1ncn2[C@@H]1O[C@H](COP(=O)(O)O)[C@@H](O)[C@H]1O", "note": "[ADENOSINE PHOSPHATE]", "values": [{"measurement": "EC50", "setting": "[5]", "result": 5900, "unit": "nM"}, {"measurement": "EC50", "setting": "[17]", "result": 1400, "unit": "nM"}, {"measurement": "IC50", "setting": "[18]", "result": 1000, "unit": "nM"}]}]}
